Test results as given in US9062321B2 (priority 2004, dated 2015).

Assays:
BuChE [1] = target: T1, BuChE (Homo sapiens, UniProt P06276); assay: Sensitivity of BuChE to cholinesterase inhibitors (background); assay type: biochemical; conditions: ratio of Ki BuChE to Ki AChE
BuChE [2] = target: T1, BuChE; conditions: in words; cited from earlier work

T1 sequence (P06276 29-602): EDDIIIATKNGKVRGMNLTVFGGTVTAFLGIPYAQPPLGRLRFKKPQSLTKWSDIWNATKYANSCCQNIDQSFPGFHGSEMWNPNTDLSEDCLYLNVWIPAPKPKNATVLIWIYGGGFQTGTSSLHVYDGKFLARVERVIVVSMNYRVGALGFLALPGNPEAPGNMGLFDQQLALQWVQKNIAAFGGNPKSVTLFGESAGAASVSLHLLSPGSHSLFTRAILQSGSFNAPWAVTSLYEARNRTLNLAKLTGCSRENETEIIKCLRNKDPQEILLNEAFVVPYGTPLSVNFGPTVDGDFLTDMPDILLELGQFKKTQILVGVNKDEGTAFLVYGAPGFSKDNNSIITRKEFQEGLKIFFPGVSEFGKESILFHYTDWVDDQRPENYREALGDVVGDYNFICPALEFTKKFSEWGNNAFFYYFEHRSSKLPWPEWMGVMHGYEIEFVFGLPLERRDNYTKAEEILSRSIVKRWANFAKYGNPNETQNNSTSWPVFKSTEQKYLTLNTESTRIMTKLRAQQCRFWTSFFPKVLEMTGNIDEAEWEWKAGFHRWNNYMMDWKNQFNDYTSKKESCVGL

Row | Structure (SMILES) | difference in sensitivity of BuChE compared to AChE (BuChE [1]) | sensitivity of BuChE to the inhibitor compared with AChE (BuChE [2])
1 | C=CC[N+](C)(C)c1ccc(CCC(=O)CCc2ccc([N+](C)(C)CC=C)cc2)cc1 [BW284c51, 1,5-bis(4-allyldimethylammoniumphenyl)pentan-3-one dibromide] | 1400 fold | –
2 | CC(C)NP(=O)(NC(C)C)OP(=O)(NC(C)C)NC(C)C [Iso-OMPA, tetraisopropyl pyrophosphoramide] | – | much more sensitive
